Measurements taken from patent US7776572B2, “Method for reducing loss of enzyme activity during storage” (Corning Incorporated, priority 1996, dated 2010).
Marks after values point to notes of the source that are not given here.

Experiments:
[1] = test system: rat; conditions: cited from earlier work
[2] = test system: BSA; assay: Polymer blends molded into petri dishes, BSA binding by colloidal gold
Method: (§3) Low binding non-ionic surfactant molecules were blended at 5% (except as noted in Table 13) into a base polymer using a twin screw extruder, then injection molded into the shape of 35 mm petri dishes. Proteins tested were BSA and Fetal Bovine Serum (FBS). Protein binding was determined using a colloidal gold staining procedure as described above. In the case of the polypropylene and EVA blends, a silver enhancer was used (Sigma Chem. Co., St, Louis, Mo., Kit #SE-100).

[3] = test system: MDCK cells; assay: Cytotoxicity of extracts of coated plates; type: cell-based; conditions: media extract of coated plates (37° C., 48 hours), MDCK 72 hours, Gram Crystal Violet
Method: Cytotoxicity experiments were performed using MDCK cells. The non-ionic surfactants tested were Pluronic L-121, L-122, and P-123; Span 80 and 85; and Brij 30, 72 and 93. These molecules were coated onto 24-well plates (Corning Costar #9447) from 0.1% (w/v) in isopropanol. Untreated polystyrene and normal tissue culture treated polystyrene (Corning Costar #25820) 24-well plates were used as controls. All plates were incubated at 37° C. for 48 hours with 2 ml/well of complete DMEM media containing 10% Fetal Bovine Serum (FBS). This incubation was performed in order to extract any potentially toxic compounds from the coated surface into the cell growth serum. The FBS solutions were then transferred to tissue culture treated polystyrene and each well was inoculated with ≈2×10^4 cells/well of MDCK cells, and then incubated at 37° C. for 72 hours in a 5% CO2 atmosphere. Cells were then stained with Gram Crystal Violet.

[4] = test system: HRP-Goat A'Mouse IgG; assay: Enzymatic determination of protein binding to coated medium binding polystyrene plate; conditions: coated medium binding PS; versus uncoated high binding polystyrene plate; absorbance 405 nm
Method: The surfactants were coated onto a medium binding polystyrene plate (Corning Costar No. 2587) as described in Material and Methods. A medium binding polystyrene plate (Corning Costar No. 2587) and a high binding polystyrene plate (Corning Costar No. 2581) were used as controls.
(a) HRP-Goat A'Mouse IgG: Kirkegaard & Perry Laboratories, Inc. Catalog No. 074-1806. Stock solution: 0.5 mg/ml; working concentration: 0.04 μg/ml. The working concentration was obtained by adding 11 μl of the stock solution per 25 mls of PBS pH 7.4 to produce a work stock (WS), and then diluting 1:6 (i.e., 10 mls WS+50 mls PBS pH 7.4).
(1) 100 μl-well of HRP-Goat A'Mouse IgG at a concentration of 0.04 μg/ml were added to the test wells and incubated for 1 hour at room temperature.
(2) The wells were then washed 5 times with the 1M wash solution. Each wash include a 5 minute soak followed by decanting.
(3) 100 μl/well of substrate (30 mls ABTS+30 mls H2O2) were added to the test wells and incubated for 15 minutes at room temperature in the dark.
(4) 100 μl/well of stopping solution (1% SDS) were added to the test wells.
(5) The plates were then shaken and read at 405 nm.
(6) Reduction in binding was determined by comparing the absorbance measured in step (5) with the absorbance measured for a high binding polystyrene plate which had not been treated with a non-ionic surfactant but otherwise subjected to steps (1) to (5).

[5] = test system: BSA protein (Bovine Serum Albumin, Fraction V); assay: BSA binding to coated polystyrene 24-well plates at different pH, colloidal gold stain; conditions: for Absorbance (550 nm) pH = 9.2: BSA 10 μg/ml in 0.10 M NaHCO3 buffer; for Absorbance (550 nm) pH = 7.4: BSA 10 μg/ml in 0.10 M PBS; for Absorbance (550 nm) pH = 4.6: BSA 10 μg/ml in 0.10 M acetate buffer
Method: Polystyrene plates having 24 wells (Corning Costar #9447) were coated as described in Materials and Methods.
BSA protein (Bovine Serum Albumin, Fraction V, Sigma) was prepared at 10 μg/ml in 0.10 M acetate buffer (pH=4.6), in 0.10 M PBS (pH=7.4), and in 0.10 M NaHCO3 buffer (pH=9.2). Wells of each coated plate, along with uncoated controls, were aliquoted 0.50 ml each of the protein solutions. The samples were run in triplicate.
The plates were placed on a rocker table for 30 minutes at 23° C. The protein solutions were then emptied from the plates, and the wells were rinsed three times with dl H2O. Thereafter, 1.0 ml of colloidal gold stain was added to each well (see Materials and Methods). The plates were placed on a rocker table overnight, rinsed three times with dI H2O, and air dried. Absorbance at 550 nm was then read using the Cambridge Technologies Plate Reader.

[6] = test system: Fetal Bovine Serum (FBS); assay: Polymer blends molded into petri dishes, FBS protein binding by colloidal gold
Method: as §3

[7] = test system: ^125I-IgG (goat anti-mouse); assay: Radiometric determination of IgG binding to surfactant-coated polystyrene microtiter wells; conditions: for Total IgG binding, Non-Sterilized: coated polystyrene wells; for Total IgG binding, Non-Sterilized / Tight IgG binding, Non-Sterilized: not sterilized; for Total IgG binding, Non-Sterilized / Total IgG binding, Sterilized: after three PBS washes; for Total IgG binding, Sterilized / Tight IgG binding, Sterilized: gamma sterilized (1.5 Mrad); for Tight IgG binding, Sterilized / Tight IgG binding, Non-Sterilized: after two hours in PBS-Tween (0.05%)
Method: The hydrophobic surfaces used were flat bottom microtiter plates composed of high binding polystyrene (Corning Costar No. 2581) and medium binding polystyrene (Corning Costar No. 2587). Testing was performed with and without gamma radiation sterilization using cobalt 60 (1.5 Mrad).
The surfactants were applied to the test plates as described in Materials and Methods, followed by sterilization where indicated.
Levels of protein binding were determined using a radiolabeled protein, namely, ^125I-IgG (goat anti-mouse) purchased from DuPont/NEN. Unlabeled IgG in sodium carbonate buffer pH 9.2 was spiked with ^125I-IgG so that the final concentration of labeled IgG and cold IgG in the test solution was 10 μg/mL.
Aliquots of 0.1 milliliters of the protein solution were placed in quadruplicate in the wells of 8-well strips removed from the test microtiter plates. The wells were incubated overnight at 4° C. with shaking. The supernatants were removed from the wells, followed by three washes with 0.2 mL of PBS. The wells were then dried and individually counted to determine “total” IgG binding. After determining “total” binding, the wells were incubated for two hours in 0.2 mL of PBS-Tween (0.05%) at room temperature with shaking. The supernatants were removed from the wells followed by three washes with 0.2 mL of PBS. The wells were dried and individually counted to determine “tight” IgG binding.
Untreated high binding and medium binding plates were used as controls. A comparative experiment was also performed in which a BSA protein coating was used in place of a surfactant coating. The BSA was preabsorbed onto the walls of the wells and then washed to remove excess material. Testing was then performed using the radiolabeled IgG solution as described above.
Radiolabel measurements were performed in a double blind study at BioMolecular Assays (Woburn, Mass.). IgG binding values per microwell were converted to ng/cm^2 values using a surface area of 0.94 cm^2 for a 0.1 mL volume.

[8] = test system: Horse IgG; assay: Protein binding by colloidal gold staining, coated medium binding polystyrene plates; conditions: coated medium binding PS; IgG 10 μg/ml, pH 9.4
Method: Except where indicated, the non-ionic surfactants were applied to the hydrophobic surfaces being tested as a 0.1% (weight/volume) solution in isopropanol. A sufficient amount of coating solution was used to cover the surface being testing with a thin layer of the solution (e.g., 25 μl of the solution per well for a standard 24-well plate). In some cases, the solution was applied to surface by spraying; in others, it was poured onto the surface (into the well). Except where indicated, coated samples were either dried at 70° C. for 30 minutes in an air circulated oven or dried at room temperature overnight to evaporate the isopropanol.
Protein binding was determined in some examples using a colloidal gold straining procedure. In accordance with this procedure, colloidal gold becomes electrostatically attached to bound protein and is detected by measuring absorbance at 550 nanometers. Bio-Rad Laboratories' Colloidal Gold Total Protein Stain was used for this purpose, with absorbance being measured with a Cambridge Technologies Plate Reader (No. 7520).
The surfactants were coated onto medium binding polystyrene plates (Corning Costar No. 2587) as described in Material and Methods.
The plates were incubated with IgG as follows: 0.1 ml of Horse IgG (Pierce Labs) at a working concentration of 10 μg/ml in 0.10M NaHCO3 buffer (pH9.4) were added to each well, incubated 30 minutes on a rocker table, and rinsed with dI H2O. The plates were gold stained overnight (0.3 ml/well), rinsed in dI H2O, air dried, and absorbance was measured at 550 nm.

[9] = test system: IgG; assay: Coating durability using water washes, IgG binding by colloidal gold; conditions: for Absorbance (550 nm) Initial: coated polystyrene, no water wash; for Absorbance (550 nm) 1 Time 1 hr 23° C. / Absorbance (550 nm) 1 Time 24 hr 23° C. / Absorbance (550 nm) 1 Time 24 hr 37° C. / Absorbance (550 nm) 1 Time 24 hr 70° C.: dI H2O wash 1 time; for Absorbance (550 nm) 6 Times 30 min each 23° C.: dI H2O wash 6 times
Method: Polystyrene plates having 24 wells (Corning Costar #9447) were coated with these surfactants as described in Materials and Methods. Durability was tested by adding dI H2O to the wells of a test plate (3.0 mls/well), following which the plate was placed on a rocker table. […] The protein solution was incubated with the plate on a rocker table for 30 minutes at 23° C., following which the plate was H2O rinse 3× (3 mls each time). The colloidal gold staining procedure described above was used to reveal bound protein. The staining comprised an overnight incubation on a rocker table at 23° C., a dI H2O rinse, drying at room temperature, and reading at 550 nm.

[10] = test system: MDCK cells; assay: MDCK cell attachment to coated polystyrene 24-well plates; type: cell-based; conditions: coated PS 24-well, gamma sterilized, media with 5% FBS, two days, visual
Method: (§1) The procedures used were as follows. Polystyrene 24-well plates were coated with the non-ionic surfactants listed in Table 5 in accordance with the procedures described in Materials and Methods. Uncoated plates were used as a control. For comparison, plates with a covalently attached acrylamide coating (Corning Costar Catalog #2500) and with a stearic acid coating were also tested. The stearic acid coating was applied in the same manner as the non-ionic surfactants again using a 0.1% (w/v) solution.
(§2) The plates were gamma sterilized at 1.5 Mrad and then inoculated with 5.6×10^4 MDCK […] per well in 1 ml of complete media containing 5% FBS (Fetal Bovine Serum). Incubation was carried out at 37° C. in a 5% CO2 atmosphere for two days. The plates were fixed and stained, and cell attachment was noted. Following this, the wells were stained using the colloidal gold technique to detect bound protein. Only visual observations were made.
Experiments were also performed with cells suspended in serum. The cells used in these experiments were MDCK cells. The surfactants used were the same as used in Table 5. Again, reduced binding of the cells to surfaces treated with a non-ionic surfactant was observed.

[11] = test system: bound protein; assay: Colloidal gold staining of bound protein after MDCK culture in media containing 5% FBS, visual; conditions: colloidal gold after cell culture, visual observation
Method: as §1, §2

[12] = blended at 5% into polypropylene, silver enhancer

CCCCCCCCCCCCCCCCCCOCCOCCO [PEO(2) STEARYL ETHER]
LD50 [1]: >25 grams/Kg | BSA or FBS protein binding ([2]; blend in polypropylene or EVA): no detectable | Bound Protein Absorbance (550 nm) BSA [2, 12]: 0.000 | Bound Protein Absorbance (550 nm) BSA ([2]; blended at 5% into polystyrene): 0.008 | cell growth and morphology [3]: confluent cell growth with normal cell morphology | % Reduction in Protein Binding [4]: 97.9% | Absorbance (550 nm) pH = 9.2 [5]: 0.00 | Absorbance (550 nm) pH = 7.4 [5]: 0.00 | Absorbance (550 nm) pH = 4.6 [5]: 0.00 | Bound Protein Absorbance (550 nm) FBS [6, 12]: 0.000 | Bound Protein Absorbance (550 nm) FBS ([6]; blended at 5% into polystyrene): 0.009 | Total IgG binding, Non-Sterilized [7]: 83 ng/cm^2 | Total IgG binding, Sterilized [7]: 36 ng/cm^2 | Tight IgG binding, Sterilized [7]: 17 ng/cm^2 | Tight IgG binding, Non-Sterilized [7]: 28 ng/cm^2 | IgG Protein Binding Absorbance (550 nm) [8]: 0.00

CCCCCCCCCCCCCCCCCC(=O)OCCOCCOCCOCCOCCOCCOCCOCCO [PEO(8) STEARATE]
LD50 [1]: >31 grams/Kg | % Reduction in Protein Binding [4]: 99.1% | Absorbance (550 nm) pH = 9.2 [5]: 0.00 | Absorbance (550 nm) pH = 7.4 [5]: 0.00 | Absorbance (550 nm) pH = 4.6 [5]: 0.00 | Total IgG binding, Non-Sterilized [7]: 6 ng/cm^2 | Total IgG binding, Sterilized [7]: 15 ng/cm^2 | Tight IgG binding, Sterilized [7]: 9 ng/cm^2 | Tight IgG binding, Non-Sterilized [7]: 3 ng/cm^2 | IgG Protein Binding Absorbance (550 nm) [8]: 0.00

SORBITOL MONO-PALMITATE
Absorbance (550 nm) Initial [9]: 0.00 | Absorbance (550 nm) 1 Time 1 hr 23° C. [9]: 0.00 | Absorbance (550 nm) 1 Time 24 hr 23° C. [9]: 0.00 | Absorbance (550 nm) 1 Time 24 hr 37° C. [9]: 0.00 | Absorbance (550 nm) 1 Time 24 hr 70° C. [9]: 0.00 | Absorbance (550 nm) 6 Times 30 min each 23° C. [9]: 0.02-0.06 | MDCK Attachment [10]: None | Visual Color Upon Protein Staining [11]: None | % Reduction in Protein Binding [4]: 88.9* % | Absorbance (550 nm) pH = 9.2 [5]: 0.00 | Absorbance (550 nm) pH = 7.4 [5]: 0.00 | Absorbance (550 nm) pH = 4.6 [5]: 0.00 | IgG Protein Binding Absorbance (550 nm) [8]: 0.00

SORBITOL TRI-OLEATE
Absorbance (550 nm) Initial [9]: 0.00 | Absorbance (550 nm) 1 Time 1 hr 23° C. [9]: 0.00 | Absorbance (550 nm) 1 Time 24 hr 23° C. [9]: 0.00 | Absorbance (550 nm) 1 Time 24 hr 37° C. [9]: 0.00 | Absorbance (550 nm) 1 Time 24 hr 70° C. [9]: 0.00 | Absorbance (550 nm) 6 Times 30 min each 23° C. [9]: 0.00 | Bound Protein Absorbance (550 nm) BSA [2, 12]: 0.000 | cell growth and morphology [3]: confluent cell growth with normal cell morphology | Bound Protein Absorbance (550 nm) FBS [6, 12]: 0.000
